Laboratory results as given in US20250179000A1 (Sanford Burnham Prebys Medical Discovery Institute, priority 2021, published 2025).

Experiments:
Format in all cases: cell-based
Human mGlu3 = Human mGlu3 (Homo sapiens, UniProt Q14832); test: mGlu receptor in vitro assay, human mGlu3
Description: (§1) Human Embryonic Kidney (HEK-293) cell lines co-expressing rat mGlu receptors 2, 3, 4, 6, 7 or 8 and G protein-coupled inwardly-rectifying potassium (GIRK) channels were grown in Growth Media containing 45% DMEM, 45% F-12, 10% FBS, 20 mM HEPES, 2 mM L-glutamine, antibiotic/antimycotic, non-essential amino acids, 700 μg/mL G418, and 0.6 μg/ml puromycin at 37° C. in the presence of 5% CO2. […] All cell culture reagents were purchased from Invitrogen Corp. (Carlsbad, CA) unless otherwise noted. Calcium assays were used to assess activity of compounds at mGlu1 and mGlu5, as previously described in Engers et al (J. Med. Chem. 2009, 52, 4115-4118). Calcium assays at mGlu3 were performed as described for mGlu5 with the exception that TREx293 mGlu3 Gα15 cells were treated with tetracycline at 20 ng/mL for 20 h prior to assay.
(§2) Briefly, cells were plated into 384-well, black-walled, clear-bottomed poly-D-lysine-coated plates at a density of 15,000 cells/20 μL/well in DMEM containing 10% dialyzed FBS, 20 mM HEPES, and 100 units/mL penicillin/streptomycin (assay media). Plated cells were incubated overnight at 37° C. in the presence of 5% CO2. The following day, the medium was exchanged from the cells to assay buffer [Hanks' balanced salt solution (Invitrogen) containing 20 mM HEPES, pH 7.3] using an ELX405 microplate washer (BioTek), leaving 20 μL/well, followed by the addition of 20 μL/well FluoZin2-AM (330 nM final concentration) indicator dye (Invitrogen; prepared as a stock in DMSO and mixed in a 1:1 ratio with Pluronic acid F-127) in assay buffer. Cells were incubated for 1 h at room temperature, and the dye exchanged to assay buffer using an ELX405, leaving 20 μL/well. Test compounds were diluted to 2 times their final desired concentration in assay buffer (0.3% DMSO final concentration). Agonists were diluted in thallium buffer [125 mM sodium bicarbonate (added fresh the morning of the experiment), 1 mM magnesium sulfate, 1.8 mM calcium sulfate, 5 mM glucose, 12 mM thallium sulfate, and 10 mM HEPES, pH 7.3] at 5 times the final concentration to be assayed. Cell plates and compound plates were loaded onto a kinetic imaging plate reader (FDSS 6000 or 7000; Hamamatsu Corporation, Bridgewater, NJ). Appropriate baseline readings were taken (10 images at 1 Hz; excitation, 470±20 nm; emission, 540±30 nm) and test compounds were added in a 20 μL volume and incubated for approximately 2.5 min before the addition of 10 μL of thallium buffer with or without agonist. After the addition of agonist, data were collected for approximately an additional 2.5 min. Data were analyzed using Excel (Microsoft Corp, Redmond, WA). The slope of the fluorescence increase beginning 5 s after thallium/agonist addition and ending 15 s after thallium/agonist addition was calculated, corrected to vehicle and maximal agonist control slope values, and plotted in using either XLfit (ID Business Solutions Ltd) or Prism software (GraphPad Software, San Diego, CA) to generate concentration-response curves. Potencies were calculated from fits using a four-point parameter logistic equation. For concentration-response curve experiments, compounds were serially diluted 1:3 into 10-point concentration response curves and were transferred to daughter plates using an Echo acoustic plate reformatter (Labcyte, Sunnyvale, CA). Test compounds were applied and followed by EC20 concentrations of glutamate.

Human mGlu2 = Human mGlu2 (Homo sapiens, UniProt Q14416); test: mGlu receptor in vitro assay, human mGlu2
Chain of Human mGlu2 (Q14416 19-872): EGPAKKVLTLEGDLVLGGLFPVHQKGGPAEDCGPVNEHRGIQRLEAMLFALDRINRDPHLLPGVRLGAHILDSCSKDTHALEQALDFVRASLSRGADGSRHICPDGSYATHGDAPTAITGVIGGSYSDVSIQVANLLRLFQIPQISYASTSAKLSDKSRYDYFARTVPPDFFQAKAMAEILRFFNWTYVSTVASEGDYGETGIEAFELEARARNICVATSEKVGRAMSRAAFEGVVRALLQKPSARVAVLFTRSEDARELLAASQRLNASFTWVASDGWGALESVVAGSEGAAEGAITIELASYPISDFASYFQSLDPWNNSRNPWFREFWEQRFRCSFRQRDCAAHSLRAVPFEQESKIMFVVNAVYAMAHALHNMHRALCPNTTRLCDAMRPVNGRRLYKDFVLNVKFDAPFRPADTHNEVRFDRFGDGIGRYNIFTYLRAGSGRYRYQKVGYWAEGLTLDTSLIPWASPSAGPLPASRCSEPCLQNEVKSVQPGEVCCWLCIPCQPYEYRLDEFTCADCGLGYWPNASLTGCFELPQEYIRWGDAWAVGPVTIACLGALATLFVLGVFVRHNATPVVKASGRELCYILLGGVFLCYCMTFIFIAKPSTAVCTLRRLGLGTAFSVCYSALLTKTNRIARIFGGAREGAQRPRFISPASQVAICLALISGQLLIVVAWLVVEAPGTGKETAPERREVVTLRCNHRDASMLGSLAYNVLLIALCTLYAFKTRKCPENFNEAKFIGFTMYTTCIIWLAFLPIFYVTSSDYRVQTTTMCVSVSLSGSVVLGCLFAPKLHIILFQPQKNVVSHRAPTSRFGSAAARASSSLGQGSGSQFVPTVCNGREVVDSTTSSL

Rat mGlu2 = target: T1, Rat mGlu2 (Rattus norvegicus, UniProt P31421); test: mGlu receptor in vitro assay, thallium flux through GIRK channels, rat mGlu2; conditions: PAM potency with EC20 glutamate
T1 construct: expressed in transfected cells; host or cells: HEK-293 co-expressing GIRK channels
T1 sequence (P31421 19-872): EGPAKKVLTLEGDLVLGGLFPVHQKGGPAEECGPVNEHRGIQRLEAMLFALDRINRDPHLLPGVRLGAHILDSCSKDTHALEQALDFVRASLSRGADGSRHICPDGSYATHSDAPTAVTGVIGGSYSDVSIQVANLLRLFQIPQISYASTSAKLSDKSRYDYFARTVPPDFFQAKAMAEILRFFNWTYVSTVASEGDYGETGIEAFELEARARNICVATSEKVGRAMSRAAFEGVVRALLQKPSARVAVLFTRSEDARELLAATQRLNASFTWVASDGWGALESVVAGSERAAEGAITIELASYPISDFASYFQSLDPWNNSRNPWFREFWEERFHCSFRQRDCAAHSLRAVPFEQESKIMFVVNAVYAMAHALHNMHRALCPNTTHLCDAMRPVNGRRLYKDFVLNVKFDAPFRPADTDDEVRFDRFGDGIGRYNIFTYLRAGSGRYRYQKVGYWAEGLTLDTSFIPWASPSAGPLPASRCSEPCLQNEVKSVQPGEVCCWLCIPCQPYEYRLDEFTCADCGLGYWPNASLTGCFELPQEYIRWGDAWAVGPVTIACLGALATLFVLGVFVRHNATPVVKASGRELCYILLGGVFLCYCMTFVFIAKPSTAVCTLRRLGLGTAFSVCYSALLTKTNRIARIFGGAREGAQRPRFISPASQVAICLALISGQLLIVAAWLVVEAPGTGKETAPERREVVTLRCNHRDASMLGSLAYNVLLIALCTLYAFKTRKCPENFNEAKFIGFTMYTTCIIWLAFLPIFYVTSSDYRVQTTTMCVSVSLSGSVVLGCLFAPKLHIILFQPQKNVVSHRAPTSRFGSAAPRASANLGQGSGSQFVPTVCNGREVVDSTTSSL
Description: as §1
as §2, with “Compound activity at the group II (mGlu2 and mGlu3) and group III (mGlu4, mGlu6, mGlu7, and mGlu8) was assessed using thallium flux through GIRK channels, a method that has been described in detail. Briefly,” for “Briefly,”

Rat mGlu3 = target: T2, Rat mGlu3 (Rattus norvegicus, UniProt P31422); test: mGlu receptor in vitro assay (thallium flux through GIRK channels / calcium assay), rat mGlu3; conditions: PAM potency with EC20 glutamate
T2 construct: expressed in transfected cells; host or cells: HEK-293 co-expressing GIRK channels
T2 sequence (P31422 23-879): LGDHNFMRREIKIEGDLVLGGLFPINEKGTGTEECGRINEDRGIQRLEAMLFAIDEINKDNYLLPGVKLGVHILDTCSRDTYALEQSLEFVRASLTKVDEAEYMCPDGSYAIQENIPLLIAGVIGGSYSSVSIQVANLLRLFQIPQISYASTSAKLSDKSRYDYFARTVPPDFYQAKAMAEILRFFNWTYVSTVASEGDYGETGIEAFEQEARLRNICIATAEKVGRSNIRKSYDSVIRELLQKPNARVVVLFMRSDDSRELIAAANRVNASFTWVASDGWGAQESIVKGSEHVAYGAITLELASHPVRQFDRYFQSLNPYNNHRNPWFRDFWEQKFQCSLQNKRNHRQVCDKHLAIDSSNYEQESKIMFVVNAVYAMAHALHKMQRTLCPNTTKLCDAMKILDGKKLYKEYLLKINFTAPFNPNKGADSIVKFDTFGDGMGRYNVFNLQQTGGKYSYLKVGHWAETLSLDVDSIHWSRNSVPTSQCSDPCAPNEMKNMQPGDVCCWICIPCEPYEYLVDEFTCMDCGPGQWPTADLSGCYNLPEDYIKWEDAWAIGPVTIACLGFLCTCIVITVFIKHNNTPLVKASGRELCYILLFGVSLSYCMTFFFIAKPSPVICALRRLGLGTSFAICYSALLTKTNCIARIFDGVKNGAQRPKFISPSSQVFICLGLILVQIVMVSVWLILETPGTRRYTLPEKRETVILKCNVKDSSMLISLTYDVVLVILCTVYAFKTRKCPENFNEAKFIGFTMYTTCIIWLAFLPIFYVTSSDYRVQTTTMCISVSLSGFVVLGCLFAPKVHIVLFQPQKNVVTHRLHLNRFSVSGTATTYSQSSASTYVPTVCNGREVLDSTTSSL
Description: as §1
as §2, with “Compound activity at the group II (mGlu2 and mGlu3) and group III (mGlu4, mGlu6, mGlu7, and mGlu8) was assessed using thallium flux through GIRK channels, a method that has been described in detail. Briefly,” for “Briefly,”

Chain of Human mGlu3 (Q14832 23-879): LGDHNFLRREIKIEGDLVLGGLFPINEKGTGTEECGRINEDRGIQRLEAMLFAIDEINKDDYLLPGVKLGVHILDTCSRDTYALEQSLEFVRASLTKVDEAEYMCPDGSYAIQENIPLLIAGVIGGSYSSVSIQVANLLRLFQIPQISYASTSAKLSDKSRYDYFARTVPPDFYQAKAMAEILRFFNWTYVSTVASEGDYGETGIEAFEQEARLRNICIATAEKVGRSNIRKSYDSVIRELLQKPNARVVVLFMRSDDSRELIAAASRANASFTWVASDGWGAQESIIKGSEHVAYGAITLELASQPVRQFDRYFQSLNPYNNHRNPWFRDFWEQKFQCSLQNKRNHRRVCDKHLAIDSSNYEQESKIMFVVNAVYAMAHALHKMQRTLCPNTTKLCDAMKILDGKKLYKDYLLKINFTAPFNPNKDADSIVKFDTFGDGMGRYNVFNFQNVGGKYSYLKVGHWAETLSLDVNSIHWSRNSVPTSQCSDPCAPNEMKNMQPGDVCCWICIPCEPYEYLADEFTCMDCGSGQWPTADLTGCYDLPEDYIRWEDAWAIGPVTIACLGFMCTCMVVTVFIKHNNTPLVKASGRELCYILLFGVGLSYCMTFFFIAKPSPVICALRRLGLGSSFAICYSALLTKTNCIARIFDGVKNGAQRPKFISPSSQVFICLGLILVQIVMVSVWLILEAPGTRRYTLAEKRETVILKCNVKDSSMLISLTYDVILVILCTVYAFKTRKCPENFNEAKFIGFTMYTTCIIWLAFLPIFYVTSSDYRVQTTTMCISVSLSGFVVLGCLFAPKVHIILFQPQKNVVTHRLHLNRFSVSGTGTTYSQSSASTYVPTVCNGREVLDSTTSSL

| SMILES | EC50 (Human mGlu3) | EC50 (Human mGlu2) | EC50 (Rat mGlu2) | EC50 (Rat mGlu3) |
| --- | --- | --- | --- | --- |
| COc1ccc(C(=O)O)cc1OCCCCCCCCOc1ccc(C(=O)CC(C)(C)C)c(O)c1C [Example 18, 3-{8-[4-(3,3-Dimethylbutanoyl)-3-hydroxy-2-methylphenoxy]octyloxy}-4-methoxybenzoic acid] | > 10000 nM | 882 nM | – | – |
| COc1ccc(C(=O)O)cc1OCCCCCCCOc1ccc(C(=O)CC(C)(C)C)c(O)c1C [Example 20, 3-{7-[4-(3,3-Dimethylbutanoyl)-3-hydroxy-2-methylphenoxy]heptyloxy}-4-methoxybenzoic acid] | 1060 nM | 334 nM | – | – |
| COc1ccc(C(=O)O)cc1OCCCCCCCCCOc1ccc(C(=O)CC(C)(C)C)c(O)c1C [Example 27, 3-{9-[4-(3,3-Dimethylbutanoyl)-3-hydroxy-2-methylphenoxy]nonyloxy}-4-methoxybenzoic acid] | 1120 nM | 710 nM | – | – |
| COc1ccc(C(=O)O)cc1OCCCCCCCCCCOc1ccc(C(=O)CC(C)(C)C)c(O)c1C [Example 28, 3-{10-[4-(3,3-Dimethylbutanoyl)-3-hydroxy-2-methylphenoxy]decyloxy}-4-methoxybenzoic acid] | 995 nM | 415 nM | – | – |
| COc1ccc(C(=O)O)cc1OCCN(CCOc1ccc(C(=O)CC(C)(C)C)c(O)c1C)S(=O)(=O)c1ccc(C)cc1 [Example 31, 3-[2-({2-[4-(3,3-Dimethylbutanoyl)-3-hydroxy-2-methylphenoxy]ethyl}[(4-methylphenyl)sulfonyl]amino)ethoxy]-4-methoxybenzoic acid] | > 30000 nM | 373 nM | – | – |
| [2H]/C(=C(/[2H])C([2H])([2H])Oc1ccc(C(=O)CCC)c(O)c1C)C([2H])([2H])Oc1cccc(C(=O)O)c1C [Example 58, (E)-3-((4-(4-Butyryl-3-hydroxy-2-methylphenoxy)but-2-en-1-yl-1,1,2,3,4,4-d6)oxy)-2-methylbenzoic acid] | 540 nM | 8 nM | – | – |
| COc1cccc(C(=O)c2ccc(OCc3cccc(-c4cccc(C(=O)O)c4)c3)c(C)c2O)c1 [compound 62, 3′-((3-Hydroxy-4-(3-methoxybenzoyl)-2-methylphenoxy)methyl)-[1,1′-biphenyl]-3-carboxylic acid] | 1600 nM | 1170 nM | – | – |
| COc1ccc(C(=O)c2ccc(OCCCCOc3cc(C(=O)O)ccc3OC)c(C)c2O)cc1 [compound 63, 3-(4-(3-Hydroxy-4-(4-methoxybenzoyl)-2-methylphenoxy)butoxy)-4-methoxybenzoic acid] | 557 nM | 507 nM | – | – |
| Cc1c(OCc2cccc(-c3cccc(C(=O)O)c3)c2)ccc(C(=O)c2ccc(F)cc2)c1O [compound 74, 3′-((4-(4-Fluorobenzoyl)-3-hydroxy-2-methylphenoxy)methyl)-[1,1′-biphenyl]-3-carboxylic acid] | 1650 nM | 924 nM | – | – |
| COc1ccc(C(=O)O)cc1OCCCCOc1ccc(C(=O)c2ccc(C(C)(C)C)cc2)c(O)c1C [compound 76, 3-[4-(4-{[4-(tert-Butyl)phenyl]carbonyl}-3-hydroxy-2-methylphenoxy)butoxy]-4-methoxybenzoic acid] | > 10000 nM | > 10000 nM | – | – |
| Cc1c(OCc2nc(-c3cccc(C(=O)O)c3)no2)ccc(C(=O)C2CC2)c1O [compound 77, 3-(5-((4-(Cyclopropanecarbonyl)-3-hydroxy-2-methylphenoxy)methyl)-1,2,4-oxadiazol-3-yl)benzoic acid] | > 10000 nM | 119 nM | – | – |
| Cc1c(OCc2cccc(-c3cccc(C(=O)O)c3)c2)ccc(C(=O)Cc2ccccc2)c1O [compound 161, 3′-((3-Hydroxy-2-methyl-4-(2-phenylacetyl)phenoxy)methyl)-[1,1′-biphenyl]-3-carboxylic acid] | – | – | 200 nM | 1030 nM |

The next lines start with the values.

| EC50 (Human mGlu3) | EC50 (Human mGlu2) | EC50 (Rat mGlu2) | EC50 (Rat mGlu3) | SMILES |
| --- | --- | --- | --- | --- |
| 750 nM | 1350 nM | – | – | COc1ccc(C(=O)O)cc1CCCCCOc1ccc(C(=O)CC(C)(C)C)c(O)c1C [Example 3, 3-(5-(4-(3,3-Dimethylbutanoyl)-3-hydroxy-2-methylphenoxy)pentyl)-4-methoxybenzoic acid] |
| 685 nM | 2030 nM | – | – | COc1ccccc1C(=O)c1ccc(OCc2cnc(-c3cccc(C(=O)O)c3)cn2)c(C)c1O [compound 73, 3-(5-((3-Hydroxy-4-(2-methoxybenzoyl)-2-methylphenoxy)methyl)pyrazin-2-yl)benzoic acid] |
| 1340 nM | 2710 nM | – | – | COc1cccc(C(=O)c2ccc(OCc3cnc(-c4cccc(C(=O)O)c4)cn3)c(C)c2O)c1 [compound 75, 3-(5-((3-Hydroxy-4-(3-methoxybenzoyl)-2-methylphenoxy)methyl)pyrazin-2-yl)benzoic acid] |
| – | – | > 10000 nM | > 30000 nM | Cc1c(OCc2cnc(-c3cccc(-c4nsc(=O)[nH]4)c3)cn2)ccc(C(=O)CC(C)(C)C)c1O [compound 125, 3-(3-(5-((4-(3,3-Dimethylbutanoyl)-3-hydroxy-2-methylphenoxy)methyl)pyrazin-2-yl)phenyl)-1,2,4-thiadiazol-5(4H)-one] |
| – | – | > 10000 nM | 2140 nM | Cc1c(OCc2cnc(-c3cccc(C(=O)NS(C)(=O)=O)c3)cn2)ccc(C(=O)CC(C)(C)C)c1O [compound 126, 3-(5-((4-(3,3-Dimethylbutanoyl)-3-hydroxy-2-methylphenoxy)methyl)pyrazin-2-yl)-N-(methylsulfonyl)benzamide] |
| – | – | 129 nM | 53 nM | COc1c(C(=O)O)cccc1-c1cnc(COc2ccc(C(=O)CC(C)(C)C)c(O)c2C)cn1 [compound 136, 3-(5-((4-(3,3-Dimethylbutanoyl)-3-hydroxy-2-methylphenoxy)methyl)pyrazin-2-yl)-2-methoxybenzoic acid] |
